Test results: US8563267B2, “Lycogen extract, composition thereof and method for the treatment using the same” (Asia-Pacific Beiotech Developing, Inc., priority 2010, dated 2013)

What was measured:
human lymphocytes = details: protection of human lymphocytes from free radical NO2; cited from earlier work
[1] = test tube studies; cited from earlier work
type I procollagen = assay: Type I procollagen level in Hs68 human fibroblasts (Western blotting); type: cell-based; details: Hs68, without UV treatment, 24 hr; lycopene 0.1, 0.5, 10 μM; lycogen extract 1, 5, 10 μM
Protocol: The Hs68 human fibroblasts were treated with 20 J/cm^2 of UVA and then with 10, 25 and 50 μM of lycogen extract for 24 hr. The type I procollagen level was analyzed by using Western blotting analysis.
In addition, under condition without UV treatment, the Hs68 human fibroblasts were treated with 0.1, 0.5 and 10 μM lycopene (extracted from tomato) or 1, 5, 10 μM lycogen extract (extracted from photosynthetic bacteria of the present invention) for 24 hr. The type I procollagen level was analyzed by using Western blotting.

CC(C)=CCC/C(C)=C/C=C/C(C)=C/C=C/C(C)=C/C=C/C=C(C)/C=C/C=C(C)/C=C/C=C(\C)CCC=C(C)C [lycopene]
NO2 resistant effect relative to β-carotene (human lymphocytes): at least two times | efficiency of singlet-oxygen quenching action relative to vitamin E [1]: 100 times | promotion of collagen proliferation (type I procollagen level) (type I procollagen): unable to promote collagen proliferation
